According to US20200017496A1 (priority 2017, published 2020):
Like-named read-outs stand apart in the source and are kept apart here.

Legend:
Assay type in all cases: cell-based
[1] = tested on: Proteus mirabilis (PMI) isolates; assay: microbe, parasite or virus in culture; conditions: for MIC: Proteus mirabilis, read-out: MIC
Procedure, shortened: (§1)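 Compound MIC, and antibacterial MIC at each fixed compound level, taken by visual inspection as lowest concentration stopping growth. Inoculum: log-phase bacteria, final 5·10^5 CFU/mL, cation-adjusted Mueller-Hinton broth; 16-20 h, 35° C, ambient air.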

[2] = tested on: Salmonella typhimurium (STY) isolates; assay: MIC of compounds alone and combined with antibacterials, broth microdilution (CLSI); conditions: for MIC ATB in combination: STY S3371; for MIC: Salmonella enterica, TYPHIMURIUM, strain STY S3371 (OXA-1)
Procedure, shortened: as §1

[3] = tested on: Enterobacter cloacae (ECL) isolates; assay: as above
Procedure, shortened: as §1

C=CC1=C(C(=O)O)N2C(=O)[C@@H](NC(=O)/C(=N\OCC(=O)O)c3csc(N)n3)[C@H]2SC1 [FIX, Cefixime]
MIC ATB in combination ([1]; PMI UFR82, AF1 @ 4 μg/mL): <=0.25 μg/mL | MIC ATB in combination ([1]; PMI UFR82, AF1 @ 8 μg/mL): <=0.25 μg/mL | MIC ATB in combination ([1]; PMI UFR120, AF1 @ 4 μg/mL): <=0.25 μg/mL | MIC ATB in combination ([1]; PMI UFR120, AF1 @ 8 μg/mL): <=0.25 μg/mL | MIC ATB in combination ([1]; PMI UFR121, AF1 @ 4 μg/mL): <=0.25 μg/mL | MIC ATB in combination ([1]; PMI UFR121, AF1 @ 8 μg/mL): <=0.25 μg/mL | MIC ATB in combination ([1]; PMI UFR122, AF1 @ 4 μg/mL): <=0.25 μg/mL | MIC ATB in combination ([1]; PMI UFR122, AF1 @ 8 μg/mL): <=0.25 μg/mL | MIC ATB in combination ([1]; PMI UFR123, AF1 @ 4 μg/mL): <=0.25 μg/mL | MIC ATB in combination ([1]; PMI UFR123, AF1 @ 8 μg/mL): <=0.25 μg/mL | MIC ATB in combination ([1]; PMI UFR124, AF1 @ 4 μg/mL): <=0.25 μg/mL | MIC ATB in combination ([1]; PMI UFR124, AF1 @ 8 μg/mL): <=0.25 μg/mL | MIC ATB in combination ([1]; PMI UFR125, AF1 @ 4 μg/mL): <=0.25 μg/mL | MIC ATB in combination ([1]; PMI UFR125, AF1 @ 8 μg/mL): <=0.25 μg/mL | MIC ATB in combination ([1]; PMI UFR126, AF1 @ 4 μg/mL): 0.031 µg/mL | MIC ATB in combination ([1]; PMI UFR126, AF1 @ 8 μg/mL): 0.016 µg/mL | MIC ATB in combination ([1]; PMI UFR127, AF1 @ 4 μg/mL): <=0.25 μg/mL | MIC ATB in combination ([1]; PMI UFR127, AF1 @ 8 μg/mL): <=0.25 μg/mL | MIC ATB in combination ([1]; PMI UFR129, AF1 @ 4 μg/mL): <=0.25 μg/mL | MIC ATB in combination ([1]; PMI UFR129, AF1 @ 8 μg/mL): <=0.25 μg/mL | MIC ATB in combination ([1]; PMI UFR130, AF1 @ 4 μg/mL): <=0.25 μg/mL | MIC ATB in combination ([1]; PMI UFR130, AF1 @ 8 μg/mL): <=0.25 μg/mL | MIC ATB in combination ([1]; PMI UFR237, AF1 @ 4 μg/mL): <=0.25 μg/mL | MIC ATB in combination ([1]; PMI UFR237, AF1 @ 8 μg/mL): <=0.25 μg/mL | MIC ([1]; PMI UFR126, alone): 1020 µg/mL | MIC ([1]; PMI UFR127, alone): > 128 µg/mL | MIC ([1]; strain PMI UFR82 (CMY-2), ATB alone): 8 µg/mL | MIC ([1]; strain PMI UFR82 (CMY-2), CLA @ 4 μg/ml+ ATB): 4 µg/mL | MIC ([1]; strain PMI UFR120 (TEM-1, SHV-11, CTX-M-14), ATB alone): 0.5 µg/mL | MIC ([1]; strain PMI UFR120 (TEM-1, SHV-11, CTX-M-14), CLA @ 4 μg/ml+ ATB): ≤ 0.25 µg/mL | MIC ([1]; strain PMI UFR121 (TEM-1, TEM-52), ATB alone): 128 µg/mL | MIC ([1]; strain PMI UFR121 (TEM-1, TEM-52), CLA @ 4 μg/ml+ ATB): ≤ 0.25 µg/mL | MIC ([1]; strain PMI UFR122 (TEM-1, CTX-M-15), ATB alone): 1 µg/mL | MIC ([1]; strain PMI UFR122 (TEM-1, CTX-M-15), CLA @ 4 μg/ml+ ATB): ≤ 0.25 µg/mL | MIC ([1]; strain PMI UFR123 (CTX-M-1), ATB alone): 128 µg/mL | MIC ([1]; strain PMI UFR123 (CTX-M-1), CLA @ 4 μg/ml+ ATB): ≤ 0.25 µg/mL | MIC ([1]; strain PMI UFR124 (CTX-M-2), ATB alone): > 128 µg/mL | MIC ([1]; strain PMI UFR124 (CTX-M-2), CLA @ 4 μg/ml+ ATB): ≤ 0.25 µg/mL | MIC ([1]; strain PMI UFR125 (CTX-M-71), ATB alone): 0.5 µg/mL | MIC ([1]; strain PMI UFR125 (CTX-M-71), CLA @ 4 μg/ml+ ATB): ≤ 0.25 µg/mL | MIC ([1]; strain PMI UFR126 (TEM-2, PER-1), ATB alone): 1020 µg/mL | MIC ([1]; strain PMI UFR126 (TEM-2, PER-1), CLA @ 4 μg/ml+ ATB): ≤ 0.25 µg/mL | MIC ([1]; strain PMI UFR127 (VEB-1), ATB alone): > 128 µg/mL | MIC ([1]; strain PMI UFR127 (VEB-1), CLA @ 4 μg/ml+ ATB): ≤ 0.25 µg/mL | MIC ([1]; strain PMI UFR129 (TEM-1, VEB-6), ATB alone): > 128 µg/mL | MIC ([1]; strain PMI UFR129 (TEM-1, VEB-6), CLA @ 4 μg/ml+ ATB): ≤ 0.25 µg/mL | MIC ([1]; strain PMI UFR130 (CMY-2), ATB alone): 8 µg/mL | MIC ([1]; strain PMI UFR130 (CMY-2), CLA @ 4 μg/ml+ ATB): 8 µg/mL | MIC ([1]; strain PMI UFR237 (VEB-6), ATB alone): > 128 µg/mL | MIC ([1]; strain PMI UFR237 (VEB-6), CLA @ 4 μg/ml+ ATB): ≤ 0.25 µg/mL | MIC ATB in combination ([2]; AF1 @ 4 μg/mL): <=0.25 μg/mL | MIC ATB in combination ([2]; AF1 @ 8 μg/mL): <=0.25 μg/mL | MIC ([2]; ATB alone): ≤ 0.25 µg/mL | MIC ([2]; CLA @ 4 μg/ml+ ATB): ≤ 0.25 µg/mL | MIC ATB in combination ([3]; ECL 2185D, AF1 @ 4 μg/mL): >128 µg/mL | MIC ATB in combination ([3]; ECL 2185D, AF1 @ 8 μg/mL): 64 µg/mL | MIC ATB in combination ([3]; ECL 190310, AF1 @ 4 μg/mL): 64 µg/mL | MIC ATB in combination ([3]; ECL 190310, AF1 @ 8 μg/mL): 32 µg/mL | MIC ATB in combination ([3]; ECL 190408, AF1 @ 4 μg/mL): 0.5 µg/mL | MIC ATB in combination ([3]; ECL 190408, AF1 @ 8 μg/mL): 0.25 µg/mL | MIC ATB in combination ([3]; ECL 200138, AF1 @ 4 μg/mL): 64 µg/mL | MIC ATB in combination ([3]; ECL 200138, AF1 @ 8 μg/mL): 16 µg/mL | MIC ATB in combination ([3]; ECL 200322, AF1 @ 4 μg/mL): 0.5 µg/mL | MIC ATB in combination ([3]; ECL 200322, AF1 @ 8 μg/mL): 0.25 µg/mL | MIC ATB in combination ([3]; ECL 260033, AF1 @ 4 μg/mL): >128 µg/mL | MIC ATB in combination ([3]; ECL 260033, AF1 @ 8 μg/mL): 2 µg/mL | MIC ATB in combination ([3]; ECL 260253, AF1 @ 4 μg/mL): 8 µg/mL | MIC ATB in combination ([3]; ECL 260253, AF1 @ 8 μg/mL): 8 µg/mL | MIC ATB in combination ([3]; ECL 260323, AF1 @ 4 μg/mL): 64 µg/mL | MIC ATB in combination ([3]; ECL 260323, AF1 @ 8 μg/mL): 32 µg/mL | MIC ATB in combination ([3]; ECL 260508, AF1 @ 4 μg/mL): <=0.25 μg/mL | MIC ATB in combination ([3]; ECL 260508, AF1 @ 8 μg/mL): <=0.25 μg/mL | MIC ATB in combination ([3]; ECL NEM146383, AF1 @ 4 μg/mL): 32 µg/mL | MIC ATB in combination ([3]; ECL NEM146383, AF1 @ 8 μg/mL): 16 µg/mL | MIC ATB in combination ([3]; ECL P99, AF1 @ 4 μg/mL): 16 µg/mL | MIC ATB in combination ([3]; ECL P99, AF1 @ 8 μg/mL): 1 µg/mL
